IC50 data for 22 compounds are collected here from patent publication US20220363681A1, “OXO SIX-MEMBERED CYCLOPYRIMIDINE COMPOUND, PREPARATION METHOD AND MEDICAL USE THEREOF” (GenFleet Therapeutics (Shanghai) Inc., priority 2019, published 2022).

For orientation: IC50 means the concentration needed to halve the response being measured.

Bounds are passed on as bounds.

In assay [1] the test system is Kras G12C mutant NCI-H358 cells. As to the kind of experiment: Cell proliferation inhibition experiment, 3D cell model, CellTiter-Glo (H358). Format: cell-based, human. As to conditions: NCI-H358, 2% FBS RPMI-1640, 384-well sphere plate, cultured 5 days with compound. As to the method: (§1) NCI-H358 was a human non-small cell lung cancer cell line with Kras G12C mutation, cultured in 10% FBS RPMI-1640 medium; A549 was a human lung adenocarcinoma cell line with Kras G12S mutation, cultured in 10% FBS F-12K medium. The cells in the logarithmic growth phase was taken, digested with trypsin EDTA, collected and counted, and H358 was adjusted to 1.8E4 cells/ml using 2% FBS RPMI-1640 medium, and A549 was adjusted to 8.9E3 cells/ml using 2% FBS F-12K medium; 800 (45 μl) H358 or 400 (45 μl) A549 cells were seeded in a 384-well sphere plate respectively, cultured overnight to establish a 3D cell model. DMSO was used to prepare 1000× compound 3.16-fold gradient concentration stock solution, and 2% FBS medium was used to dilute 100-fold to 10× compound stock solution. On the second day after cell seeding, 5 μl 10× compound stock solution was added to each cell culture well, the final concentration was 1×, and DMSO content was 0.1%. DMSO was used as the experimental control (control) and 2% FBS medium as the blank control (blank). After the compound and cells were added and cultured for 5 days, 25 μl CellTiter-Glo working solution was added to each well, mixed at 400 rpm and incubated for 30 minutes. After standing 30 minutes at room temperature, 40 μl of the mixture was transfered to a 384-well plate with a non-transparent white bottom, the luminescence chemiluminescence value was read, and the cells proliferation inhibition rate IR (%)=(RLU control-RLU compound)/(RLU control-RLU blank)×100% was calculated, Prism 6 four-parameter method was used to fit the compound's gradient dilution concentration and the corresponding cell proliferation inhibition rate, and the IC50 value was calculated.
A general note: ATP-based viability assays read luminescence as a measure of living cells.

The test system of assay [2] is A549 cells (Kras G12S mutation). As to the kind of experiment: Cell proliferation inhibition experiment, 3D cell model, CellTiter-Glo (A549). Type of assay: cell-based, human. As to conditions: A549, 2% FBS F-12K, 384-well sphere plate, cultured 5 days with compound. As to the method:
as §1

Take `C=CC(=O)N1CCN(c2nc(OC[C@@H]3CCCN3C)nc3c(OC4CC4)c(-c4c(C)ccc5[nH]ncc45)c(Cl)cc23)CC1` (single isomer, unassigned) [Compound Z7B]: the IC50 in assay [1] is 0.006 µM; in assay [2] it was more than 1 µM.

As to `C=CC(=O)N1CCN(c2nc(OC3CCN(C)CC3)nc3c(OC4CC4)c(-c4c(C)ccc5[nH]ncc45)c(Cl)cc23)CC1` (single isomer, unassigned) [Compound Z12A], the IC50 was 0.009 µM in assay [1] and more than 1 µM in assay [2].

`C=CC(=O)N1CCN(c2nc(OC3CCN(C)CC3)nc3c(OC4CC4)c(-c4c(C)ccc5[nH]ncc45)c(Cl)cc23)CC1` (single isomer, unassigned) [Compound Z12B]: the IC50 in assay [1] was 0.39 µM; in assay [2], more than 5 µM.

As to `C=CC(=O)N1CCN(c2nc(OC[C@@H]3CCCN3C)nc3c(OC4CC4)c(-c4c(C)ccc5[nH]ncc45)c(Cl)cc23)[C@@H](C)C1` (single isomer, unassigned) [Compound Z28B], the IC50 was 0.004 µM in assay [1] and more than 1 µM in assay [2].

For `C=CC(=O)N1CCN(c2nc(O[C@@H]3CCN(C)C3)nc3c(OC4CC4)c(-c4c(C)ccc5[nH]ncc45)c(Cl)cc23)CC1` (single isomer, unassigned) [Compound Z39B], the IC50 in assay [1] was 0.012 µM; in assay [2] it was more than 30 µM.

For `C=CC(=O)N1CCN(c2nc(O[C@H]3CCN(C)C3)nc3c(OC4CC4)c(-c4c(C)ccc5[nH]ncc45)c(Cl)cc23)CC1` (single isomer, unassigned) [Compound Z40A], the IC50 was 0.012 µM in assay [1] and more than 30 µM in assay [2].

With `C=CC(=O)N1CCN(c2nc(OC[C@@H]3CCCN3C)nc3c(OC4CC4)c(-c4c(C)ccc5[nH]ncc45)c(OC)cc23)[C@@H](C)C1` (single isomer, unassigned) [Compound Z48B], the IC50 in assay [1] (Homo sapiens, NCI-H358, 120 h) is 0.01 µM; in assay [2] (Homo sapiens, A549, 120 h), more than 10 µM.

On to `C=CC(=O)N1CCN(c2nc(OC[C@@H]3CCCN3C)nc3c(OC4CC4)c(-c4c(C)ccc5[nH]ncc45)c(OC)cc23)C[C@@H]1CC#N` (single isomer, unassigned) [Compound Z50A], for which the IC50 was 0.05 µM in assay [1] (Homo sapiens, NCI-H358, 120 h) and more than 10 µM in assay [2] (Homo sapiens, A549, 120 h).

On to `C=CC(=O)N1CCN(c2nc(OC3CCN(C)CC3)nc3c(OC4CC(F)(F)C4)c(-c4c(C)ccc5[nH]ncc45)c(Cl)cc23)CC1` [Compound Z1, 1-(4-(6-chloro-8-(3,3-difluorocyclobutoxy)-7-(5-methyl-1H-indazol-4-yl)-2-((1-methylpiperidin-4-yl)oxy)quinazolin-4-yl)piperazin-1-yl)prop-2-en-1-one], for which the IC50 in assay [1] (Homo sapiens, NCI-H358, 120 h) is 0.108 µM; in assay [2] (Homo sapiens, A549, 120 h) it was more than 1 µM.

With `C=CC(=O)N1CCN(c2nc(OC3CCN(C)CC3)nc3c(OC4CCOCC4)c(-c4c(C)ccc5[nH]ncc45)c(Cl)cc23)CC1` [Compound Z2, 1-(4-(6-chloro-7-(5-methyl-1H-indazol-4-yl)-2-((1-methylpiperidin-4-yl)oxy)-8-((tetrahydro-2H-pyran-4-yl)oxy)quinazolin-4-yl)piperazin-1-yl)prop-2-en-1-one], the IC50 in assay [1] (Homo sapiens, NCI-H358, 120 h) was 0.126 µM; in assay [2] (Homo sapiens, A549, 120 h), more than 1 µM.

On to `C=CC(=O)N1CCN(c2nc(OC3CCN(C)CC3)nc3c(OC4CCC4)c(-c4c(C)ccc5[nH]ncc45)c(Cl)cc23)CC1` [Compound Z3, 1-(4-(6-chloro-8-cyclobutoxy-7-(5-methyl-1H-indazol-4-yl)-2-((1-methylpiperidin-4-yl)oxy)quinazolin-4-yl)piperazin-1-yl)prop-2-en-1-one], for which the IC50 in assay [1] (Homo sapiens, 120 h) is 0.06 µM; in assay [2] (Homo sapiens, 120 h), more than 1 µM.

For `C=CC(=O)N1CCN(c2nc(OC[C@@H]3CCCN3C)nc3c(OC4CC(F)(F)C4)c(-c4c(C)ccc5[nH]ncc45)c(Cl)cc23)CC1` [Compound Z4, 1-(4-(6-chloro-8-(3,3-difluorocyclobutoxy)-7-(5-methyl-1H-indazol-4-yl)-2-(((S)-1-methylpyrrolidin-2-yl)methoxy)quinazolin-4-yl)piperazin-1-yl)prop-2-en-1-one], the IC50 in assay [1] (Homo sapiens, NCI-H358, 120 h) was 0.136 µM; in assay [2] (Homo sapiens, A549, 120 h), more than 1 µM.

For the compound `C=CC(=O)N1CCN(c2nc(OC[C@@H]3CCCN3C)nc3c(OC4CC(F)(F)C4)c(-c4c(C)ccc5[nH]ncc45)c(Cl)cc23)[C@@H](C)C1` [Compound Z5], the IC50 is 0.311 µM in assay [1] (Homo sapiens, NCI-H358, 120 h) and more than 10 µM in assay [2] (Homo sapiens, A549, 120 h).

Consider `C=CC(=O)N1CCN(c2nc(OC[C@@H]3CCCN3C)nc3c(OC4CC(F)(F)C4)c(-c4c(C)ccc5[nH]ncc45)c(Cl)cc23)C[C@@H]1CC#N` [Compound Z6, 2-((2S)-1-acryloyl-4-(6-chloro-8-(3,3-difluorocyclobutoxy)-7-(5-methyl-1H-indazol-4-yl)-2-(((S)-1-methylpyrrolidin-2-yl)methoxy)quinazolin-4-yl)piperazin-2-yl) acetonitrile], for which the IC50 in assay [1] (Homo sapiens, NCI-H358, 120 h) was 0.139 µM; in assay [2] (Homo sapiens, A549, 120 h), more than 5 µM.

For `C=CC(=O)N1CCN(c2nc(OC[C@@H]3CCCN3C)nc3c(OC4CC4)c(-c4c(C)ccc5[nH]ncc45)c(Cl)cc23)CC1` [Compound Z7, 1-(4-(6-chloro-8-cyclopropoxy-7-(5-methyl-1H-indazol-4-yl)-2-(((S)-1-methylpyrrolidin-2-yl)methoxy)quinazolinpyridin-4-yl)piperazin-1-yl)prop-2-en-1-one], the IC50 is 0.016 µM in assay [1] and more than 1 µM in assay [2] (Homo sapiens, A549, 120 h).

As to `C=CC(=O)N1CCN(c2nc(OC[C@@H]3CCCN3C)nc3c(OC4CCC4)c(-c4c(C)ccc5[nH]ncc45)c(Cl)cc23)CC1` [Compound Z8, 1-(4-(6-chloro-8-cyclobutoxy-7-(5-methyl-1H-indazol-4-yl)-2-(((S)-1-methylpyrrolidin-2-yl)methoxy)quinazolinpyridin-4-yl)piperazin-1-yl)prop-2-en-1-one], the IC50 in assay [1] (Homo sapiens, NCI-H358, 120 h) was 0.07 µM; in assay [2] (Homo sapiens, A549, 120 h), more than 10 µM.

For `C=CC(=O)N1CCN(c2nc(OC[C@@H]3CCCN3C)nc3c(OC4CCOC4)c(-c4c(C)ccc5[nH]ncc45)c(Cl)cc23)CC1` (stereo partly drawn) [Compound Z10A, 1-(4-(6-chloro-7-(5-methyl-1H-indazol-4-yl)-2-(((S)-1-methylpyrrolidin-2-yl)methoxy)-8-((tetrahydrofuran-3-yl)oxy)quinazolin-4-yl)piperazin-1-yl)prop-2-en-1-one], the IC50 in assay [1] (Homo sapiens, NCI-H358, 120 h) was 0.257 µM; in assay [2] (Homo sapiens, A549, 120 h), more than 10 µM.

In the case of `C=CC(=O)N1CCN(c2nc(OC3CCN(C)CC3)nc3c(OC4CC4)c(-c4c(C)ccc5[nH]ncc45)c(Cl)cc23)CC1` [Compound Z12, 1-(4-(6-chloro-8-cyclopropoxy-7-(5-methyl-1H-indazol-4-yl)-2-((1-methylpiperidin-4-yl)oxy)quinazolin-4-yl)piperazin-1-yl)prop-2-en-1-one], the figures for the IC50 in assay [1] and in assay [2] were 0.018 µM and more than 10 µM, respectively.

As for `C=CC(=O)N1CCN(c2nc(OC[C@@H]3CCCN3C)nc3c(OC4CC4)c(-c4c(O)cccc4F)c(Cl)cc23)CC1` [Compound Z13], the IC50 is 0.336 µM in assay [1] (Homo sapiens, NCI-H358, 120 h) and more than 1 µM in assay [2] (Homo sapiens, A549, 120 h).

As for `C=CC(=O)N1CCN(c2nc(OC[C@@H]3CCCN3C)nc3c(OC4CC4)c(-c4c(C)ccc5[nH]ncc45)c(Cl)cc23)[C@H](C)C1` [Compound Z27, 1-((3R)-4-(6-chloro-8-cyclopropoxy-7-(5-methyl-1H-indazol-4-yl)-2-(((S)-1-methylpyrrolidin-2-yl)methoxy)quinazolin-4-yl)-3-methylpiperazin-1-yl)prop-2-en-1-one], the IC50 in assay [1] (Homo sapiens, NCI-H358, 120 h) was 0.324 µM; in assay [2] (Homo sapiens, A549, 120 h), more than 1 µM.

Take `C=CC(=O)N1CCN(c2nc(OC[C@@H]3CCCN3C)nc3c(OC4CC4)c(-c4c(C)ccc5[nH]ncc45)c(Cl)cc23)[C@@H](C)C1` [Compound Z28, 1-((3S)-4-(6-chloro-8-cyclopropoxy-7-(5-methyl-1H-indazol-4-yl)-2-(((S)-1-methylpyrrolidin-2-yl)methoxy)quinazolin-4-yl)-3-methylpiperazin-1-yl)prop-2-en-1-one]: the IC50 in assay [1] (Homo sapiens, NCI-H358, 120 h) is 0.011 µM; in assay [2] (Homo sapiens, A549, 120 h), more than 1 µM.

Turning to `C=CC(=O)N1CCN(c2nc(OC[C@@H]3CCCN3C)nc3c(OC4CC4)c(-c4c(C)ccc5[nH]ncc45)c(Cl)cc23)C[C@@H]1C` [Compound Z29, 1-((2S)-4-(6-chloro-8-cyclopropoxy-7-(5-methyl-1H-indazol-4-yl)-2-((((S)-1-methylpyrrolidin-2-yl))methoxy)quinazolin-4-yl)-2-methylpiperazin-1-yl)prop-2-en-1-one], the IC50 in assay [1] (Homo sapiens, NCI-H358, 120 h) was 0.051 µM; in assay [2] (Homo sapiens, A549, 120 h), more than 10 µM.
